Paper PMC7724566, “Prospects for Clinical Development of Stat5 Inhibitor IST5-002: High Transcriptomic Specificity in Prostate Cancer and Low Toxicity In Vivo” (Cancers, 2020)

What was measured:
[1] = test system: Stat5; experiment: Stat5 phosphorylation in K562 cells (immunoblot); assay type: cell-based, human; conditions: 4 days
Protocol: In order to evaluate whether the phosphate group of IST5 is critical for IST5 activity in cell-based assays, we compared the potency of IST5 (Figure 4A) to that of IST5-M (IST5 without the phosphate group) (Figure 4B) in inhibiting phosphorylation of Stat5 in PC and CML cells. CML (K562) cells and PC (CWR22Rv1) cells were cultured for 4 days with increasing concentrations of IST5 and IST5-M (Figure 4C,D). […] Collectively, these finding indicate that IST5 and IST5-M have similar efficacies in inhibiting phosphorylation of Stat5 in both CML and PC cells.
Figure 4 IST5 and the IST5-derivative lacking the phosphate group (IST5-M), both, inhibit Stat5 phosphorylation in CML and prostate cancer cell line with high efficacy. (A), chemical structure of IST5-002 (IST5). (B), chemical structure of IST5-M (IST5 without the phosphate group. (C), IST5 and IST5-M both inhibit Stat5 phosphorylation in CML cells (K562) with high efficacy. K562 cells were treated with IST5 and IST5-M for 4 days at the concentrations indicated. Whole cell lysates (WCL) were immunoblotted with anti-pYStat5 mAb, anti-Stat5 mAb and anti-actin mAb as loading control. (D), IST5 and IST5-M, both, decrease Stat5 phosphorylation in PC cells (CWR22Rv1). CWR22Rv1 cells were treated with increasing concentrations of IST5 and IST5-M for 4 days. Stat5 was immunoprecipitated (IP) followed by immunoblotting (WB) with anti-pYStat5 mAb and anti-Stat5 mAb. Whole cell lysates (WCL) were immunoblotted with anti-actin mAb as loading control.
Cell pellets were solubilized in the lysis buffer (10 mM Tris-HCl (pH 7.6), 5 mM EDTA, 50 mM sodium chloride, 30 mM sodium pyrophosphate, 50 mM sodium fluoride, 1 mM sodium orthovanadate, 1% Triton X-100, 1 mM phenylmethylsulfonyl fluoride, 5 µg/mL aprotinin, 1 µg/mL pepstatin A and 2 µg/mL leupeptin), and protein concentrations of clarified cell lysates were determined by a simplified Bradford method (Bio-Rad, Hercules, CA, USA). The whole cell lysates were immunoprecipitated with polyclonal antibodies (Table S1) followed by incubation with protein A-Sepharose beads (GE Healthcare, Chicago, IL, USA). The cell lysates and immunoprecipitated proteins were separated on 4–12% SDS-PAGE (Life Technologies, Brown Deer, WI, USA) and transferred electrophoretically to polyvinylidene fluoride membrane (Millipore). For immunoblotting, blocking buffer was tris-buffered saline and tween 20 (TBST, 0.15 M NaCl; 0.1% Tween 20; 50 mM Tris, pH 8.0) with 3% bovine serum albumin (BSA). The immunoreaction with the specific antibodies (Table S1) was detected by horseradish peroxidase-conjugated secondary antibodies followed by enhanced chemiluminescence (GE Healthcare).

[2] = test system: enzalutamide-resistant PC; design: method as in PMID 31548294; conditions: cited from earlier work
[3] = test system: athymic nude mice; experiment: Chronic toxicity study (28 days), plasma biochemistry; assay type: in vivo; conditions: i.p. 28 days; for A-G Ratio / ALT / AST / Albumin / Alk.Ptase / Bile Acid / Chol / TBIL / Globulin / BUN: plasma; for Globulin: in g/dL (unit assumed); for BUN: in mg/dL (unit assumed)
Protocol: Forty athymic nude mice (8 weeks) (Crl:NU/NCr-Foxn1n) of either sex (20 males and 20 females) were randomized into four groups (n = 5/group) for either sex. The randomization of the mice was carried out based on their baseline body weight measured on day 0. IST5 or vehicle (0.3% hydroxypropyl cellulose, (Sigma-Aldrich, MO, St. Louis, MO, USA) were administered to the mice by i.p. injection for 28 days. The mice were observed daily for behavior, and body weights were measured on every 3rd day throughout the 28-day experimental protocol. The monitoring was started immediately after the compound administration and continued for 2 h for any acute signs of toxicity. In addition, the mice were monitored daily for any signs of toxicity using several clinical parameters. The clinical signs that were taken into consideration were as follows: 1) weight loss: rapid weight loss ([…]) or, weight loss of extended period time ([…]); 2) rapid growth of mass or masses; 3) paralysis or paresis (partial paralysis); 4) frank bleeding from any orifice; 5) lesions interfering with eating or drinking; 6) diarrhea (non-formed/soft stool or diarrhea liquid stool); 6) loss of body temperature; 7) appearance: rough coat, porphyrin staining (red or brown staining around eyes, nose, or along front paws, distended abdomen, alopecia; 8) eyes: ocular discharge, pale appearance, distinct icterus (jaundice or yellowing of the eyes); 9) respiration: coughing or wheezing, rales or crackling in the lungs, respiration increased or labored; 10) behavioral: hunched posture, huddling in a corner, lethargy, avoiding cagemate(s), head tilt, tremors (head, body, tail), spasticity (stiff muscles), ataxia (loss of voluntary muscle movement), seizures or convulsions, circling, persistent self-induced trauma, chattering or vocalizations, loss of startle response, loss of righting reflex. The clinical chemistry parameters measured were the same as those used for the acute toxicity study.

O=P(O)(O)OCC1OC(n2cnc3c(NCc4ccccc4)ncnc32)C(O)C1O (stereo not drawn) [IST5]
inhibition of Stat5 phosphorylation ([1]; 2 µM, K562 cells): 75–90%
IC50 ([1]; read-out: IC50, inhibition of Stat5 phosphorylation, K562 CML cells): ~1100 nM
enzalutamide-resistant PC growth in mice [2]: blocks enzalutamide-resistant PC growth
BW ([3]; 10 mg/kg): 22.5 ± 1.1 gm
HCT ([3]; 10 mg/kg): 0.43 ± 0.02 L/L
A-G Ratio ([3]; 10 mg/kg): 1.93 ± 0.08
ALT ([3]; 10 mg/kg): 50.4 ± 3.71 U/L
AST ([3]; 10 mg/kg): 329.9 ± 30.9 U/L
Albumin ([3]; 10 mg/kg): 2.69 ± 0.05 g/dL
Alk.Ptase ([3]; 10 mg/kg): 51.3 ± 0.72 U/L
Bile Acid ([3]; 10 mg/kg): 21.0 ± 12.7 µmol/dL
Chol ([3]; 10 mg/kg): 65.0 ± 2.09 mg/dL
TBIL ([3]; 10 mg/kg): 0.26 ± 0.02 mg/dL
Globulin ([3]; 10 mg/kg): 1.41 ± 0.04
BUN ([3]; 10 mg/kg): 20.5 ± 0.82
BW ([3]; 30 mg/kg): 23.5 ± 0.6 gm
HCT ([3]; 30 mg/kg): 0.45 ± 0.01 L/L
A-G Ratio ([3]; 30 mg/kg): 1.9 ± 0.11
ALT ([3]; 30 mg/kg): 45.2 ± 3.76 U/L
AST ([3]; 30 mg/kg): 336 ± 57.1 U/L
Albumin ([3]; 30 mg/kg): 2.74 ± 0.07 g/dL
Alk.Ptase ([3]; 30 mg/kg): 53.0 ± 1.93 U/L
Bile Acid ([3]; 30 mg/kg): 2.39 ± 0.32 µmol/dL
Chol ([3]; 30 mg/kg): 70.3 ± 1.38 mg/dL
TBIL ([3]; 30 mg/kg): 0.21 ± 0.01 mg/dL
Globulin ([3]; 30 mg/kg): 1.47 ± 0.07
BUN ([3]; 30 mg/kg): 25 ± 1.32
BW ([3]; 100 mg/kg): 23.5 ± 0.9 gm
HCT ([3]; 100 mg/kg): 0.43 ± 0.03 L/L
ALT ([3]; 100 mg/kg): 50.9 ± 3.83 U/L
AST ([3]; 100 mg/kg): 327 ± 4.03 U/L
Albumin ([3]; 100 mg/kg): 2.74 ± 0.04 g/dL
Alk.Ptase ([3]; 100 mg/kg): 53.3 ± 1.76 U/L
Bile Acid ([3]; 100 mg/kg): 2.98 ± 0.29 µmol/dL
Chol ([3]; 100 mg/kg): 75.9 ± 2.06 mg/dL
BUN ([3]; 100 mg/kg): 23.0 ± 0.07
